Measured values published in US7109170B2, “Region of factor IXa protease domain that interacts with factor VIIIa and methods therefor” (Saint Louis University, priority 1999, dated 2006).

Key:
[1] = system: Factor IX deficient plasma; assay: coagulant activity of XIa-activated IXa proteins; assay type: biochemical
[2] = target: factor X (Homo sapiens, UniProt P00742); assay: factor X activation in complete intrinsic Tenase system (IXa, Ca2+, phospholipid, VIIIa); assay type: biochemical; set-up: Normal human plasma factor IX (IXNP) and factor X were isolated as described in Bajaj and Birktoft; from tissue; host or cells: human plasma (factor X); factor VIII obtained from Dr. Leon Hoyer, American Red Cross; details: 70 pM VIIIa, 0.5 nM IXa, 15 nM X, phospholipid present
Protocol: The ability of each activated mutant to activate factor X in the presence and absence of phospholipid and factor VIIIa was determined as follows. The activation was carried out at 37° C. in a 50 μl reaction volume, in TBS/BSA pH 7.4, for various time periods. At the end of the incubation time period, each reaction mixture received 1 μl of 0.5 M EDTA to stop further generation of factor Xa. A 40 μL aliquot was then added to 0.1 ml quartz cuvette containing S-2222 in 75 μL of TBS/BSA, pH 7.4. The final concentration of S-2222 was 100 μM. The p-nitroaniline release was measured continuously (ΔA405/min) for up to 20 min (Sabharwal et al., 1995 supra; Sabharwal et al., 1997, supra). Factor Xa generated was calculated from a standard curve constructed using factor Xa prepared from insolubilized Russell's viper venom.
Factor X activation measurements were made under four experimental regimes. In one, Ca^2+ and phospholipid were present. In this system activation was carried out for 5–15 minutes and the concentration of each IXa protein was 20 nM, phospholipid was 25 μM, and factor X was 100 nM. In the second regime, Ca^2+, phospholipid and factor VIIIa were present. […] In the third regime, only Ca^2+ was present. Here, activation was carried out for 2–20 min and concentration of each IXa protein was 400 nM and factor X was 1 μM. Finally, in the fourth regime, Ca^2+ and VIIIa were present. Here, activation was carried out for 15–120 sec and the concentration of each IXa protein was 2 μM, VIIIa was 14 nM, and factor X was 400 nM.
In all of the above factor X activation experiments, the incubation times chosen were those in which the factor Xa generated was always less than 10 nM. This precautionary measure was taken to prevent activation of factor X by the generated factor Xa (see, e.g., Link. and Castellino, 1982, Arch Biochem. Biophys. 215, 215–221). Further, in those incubation mixtures which contained […], control experiments were also performed in which factor VIIIa was omitted. […] In the presence of factor VIIIa, 10 μM phospholipid was used based upon previous observations (Mathur et al., 1997, supra; van Dieijen et al., 1981, J. Biol. Chem. 256, 3433–3442). The concentrations of factor X selected for each set of reaction conditions are those which are below or at the Km values (van Dieijen et al., supra; Fay and Koshibu, 1998, J Biol. Chem. 273, 19049–19054). In this region of the Michaelis-Menton curve, the rate of formation of factor Xa is proportional to the substrate factor X and therefore to the affinity of the factor IXa enzyme for factor X.
Next, the activation of factor X in a complete intrinsic Tenase system (IXa, Ca^2+, phospholipid, VIIIa) was studied.

factor X, sequence (P00742 183-488 limits assumed): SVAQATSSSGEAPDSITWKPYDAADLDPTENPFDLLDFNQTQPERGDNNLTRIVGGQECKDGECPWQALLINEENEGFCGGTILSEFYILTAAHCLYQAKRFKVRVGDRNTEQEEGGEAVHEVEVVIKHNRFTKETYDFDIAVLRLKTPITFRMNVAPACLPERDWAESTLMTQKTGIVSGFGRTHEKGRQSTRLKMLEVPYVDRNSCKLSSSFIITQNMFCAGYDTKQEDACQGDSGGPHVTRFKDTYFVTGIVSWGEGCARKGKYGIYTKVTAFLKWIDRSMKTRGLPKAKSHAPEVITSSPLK
factor X, sequence (P00742 41-179 limits assumed): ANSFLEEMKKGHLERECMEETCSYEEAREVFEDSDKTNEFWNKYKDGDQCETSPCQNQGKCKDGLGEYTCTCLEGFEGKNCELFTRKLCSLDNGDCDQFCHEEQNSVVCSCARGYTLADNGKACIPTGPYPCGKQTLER
factor X, sequence (P00451 20-759 partner limits assumed): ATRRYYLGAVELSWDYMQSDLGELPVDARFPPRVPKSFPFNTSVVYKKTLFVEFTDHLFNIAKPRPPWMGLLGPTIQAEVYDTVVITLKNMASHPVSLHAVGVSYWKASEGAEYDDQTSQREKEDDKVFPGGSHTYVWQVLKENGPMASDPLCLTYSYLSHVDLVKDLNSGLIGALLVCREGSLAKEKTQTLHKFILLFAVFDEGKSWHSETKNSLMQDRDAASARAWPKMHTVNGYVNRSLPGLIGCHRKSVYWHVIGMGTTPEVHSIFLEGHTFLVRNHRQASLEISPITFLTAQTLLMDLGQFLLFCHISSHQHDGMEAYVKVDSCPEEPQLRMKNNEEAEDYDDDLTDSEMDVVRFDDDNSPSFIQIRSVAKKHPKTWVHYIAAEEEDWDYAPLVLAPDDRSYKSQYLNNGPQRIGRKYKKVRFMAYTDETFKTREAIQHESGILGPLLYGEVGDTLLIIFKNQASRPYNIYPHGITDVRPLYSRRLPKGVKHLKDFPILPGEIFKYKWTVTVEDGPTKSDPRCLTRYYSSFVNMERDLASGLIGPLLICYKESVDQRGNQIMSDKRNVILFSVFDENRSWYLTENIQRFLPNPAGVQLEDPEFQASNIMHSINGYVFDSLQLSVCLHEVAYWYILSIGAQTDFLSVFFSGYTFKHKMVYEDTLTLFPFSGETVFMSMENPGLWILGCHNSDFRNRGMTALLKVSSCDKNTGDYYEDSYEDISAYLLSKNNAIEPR
factor X, sequence (P00451 1668-2351 partner limits assumed): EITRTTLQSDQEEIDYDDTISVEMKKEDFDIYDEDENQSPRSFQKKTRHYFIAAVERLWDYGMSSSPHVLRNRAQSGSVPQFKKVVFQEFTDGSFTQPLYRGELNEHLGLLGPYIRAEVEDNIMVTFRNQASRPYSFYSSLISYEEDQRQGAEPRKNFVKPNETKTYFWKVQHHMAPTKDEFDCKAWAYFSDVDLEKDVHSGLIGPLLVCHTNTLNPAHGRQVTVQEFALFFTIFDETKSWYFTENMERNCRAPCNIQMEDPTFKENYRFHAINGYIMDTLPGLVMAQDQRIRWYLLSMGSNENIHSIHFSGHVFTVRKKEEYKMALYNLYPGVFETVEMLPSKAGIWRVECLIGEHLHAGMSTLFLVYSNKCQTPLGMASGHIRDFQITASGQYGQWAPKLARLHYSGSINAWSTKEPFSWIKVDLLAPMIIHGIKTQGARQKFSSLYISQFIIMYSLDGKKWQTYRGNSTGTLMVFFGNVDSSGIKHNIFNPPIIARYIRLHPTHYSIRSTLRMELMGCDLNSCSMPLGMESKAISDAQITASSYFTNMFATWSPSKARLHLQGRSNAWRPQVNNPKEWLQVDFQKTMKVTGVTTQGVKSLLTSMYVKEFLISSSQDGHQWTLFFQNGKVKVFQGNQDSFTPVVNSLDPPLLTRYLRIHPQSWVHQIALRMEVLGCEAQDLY

## IXaV331A: activated factor IX mutant V331A
[1]
  coagulant activity as compared to IXaNP: ~6%
[2]
  X-activation rate, PL-plus system: 0.55 ± 0.04 nM/min
